Structures are written as SMILES. Active and inactive are the calls of the source. No cut-off for these calls is given here.

The target in assay [1] is T1, A disintegrin and metalloproteinase with thrombospondin motifs 5 (Homo sapiens, UniProt Q9UNA0).
T1 sequence (Q9UNA0 whole entry): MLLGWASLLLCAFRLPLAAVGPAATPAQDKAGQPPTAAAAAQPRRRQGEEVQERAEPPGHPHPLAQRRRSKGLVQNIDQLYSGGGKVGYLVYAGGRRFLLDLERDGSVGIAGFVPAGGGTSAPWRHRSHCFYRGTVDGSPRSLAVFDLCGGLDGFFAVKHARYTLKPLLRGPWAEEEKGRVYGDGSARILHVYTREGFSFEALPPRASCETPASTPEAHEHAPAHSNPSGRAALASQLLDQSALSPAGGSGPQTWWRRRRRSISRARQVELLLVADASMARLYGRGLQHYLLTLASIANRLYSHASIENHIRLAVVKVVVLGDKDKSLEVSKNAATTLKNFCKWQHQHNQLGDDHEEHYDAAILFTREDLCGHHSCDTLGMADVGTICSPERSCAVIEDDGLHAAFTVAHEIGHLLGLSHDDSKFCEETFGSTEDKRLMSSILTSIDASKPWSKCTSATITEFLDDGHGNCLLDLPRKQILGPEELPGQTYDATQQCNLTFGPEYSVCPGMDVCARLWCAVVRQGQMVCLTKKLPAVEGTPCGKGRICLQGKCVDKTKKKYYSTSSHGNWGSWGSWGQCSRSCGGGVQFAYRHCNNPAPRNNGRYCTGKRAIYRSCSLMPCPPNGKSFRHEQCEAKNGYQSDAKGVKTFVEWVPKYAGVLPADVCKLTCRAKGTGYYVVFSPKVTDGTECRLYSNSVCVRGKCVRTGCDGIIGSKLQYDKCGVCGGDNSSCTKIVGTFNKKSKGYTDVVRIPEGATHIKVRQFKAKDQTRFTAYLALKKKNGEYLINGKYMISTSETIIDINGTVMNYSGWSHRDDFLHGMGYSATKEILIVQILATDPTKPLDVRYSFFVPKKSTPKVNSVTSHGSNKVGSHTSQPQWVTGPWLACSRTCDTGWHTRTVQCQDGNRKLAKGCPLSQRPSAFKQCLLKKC
The experiment in a line: Inhibition of recombinant aggrecanase 2.

The target of assay [2] is Disintegrin and metalloproteinase domain-containing protein 17 (Homo sapiens) (UniProt P78536). Description: Inhibition of TACE at 10 uM.
Sequence of Disintegrin and metalloproteinase domain-containing protein 17 (Homo sapiens) (P78536 whole entry, the tested form may be a part): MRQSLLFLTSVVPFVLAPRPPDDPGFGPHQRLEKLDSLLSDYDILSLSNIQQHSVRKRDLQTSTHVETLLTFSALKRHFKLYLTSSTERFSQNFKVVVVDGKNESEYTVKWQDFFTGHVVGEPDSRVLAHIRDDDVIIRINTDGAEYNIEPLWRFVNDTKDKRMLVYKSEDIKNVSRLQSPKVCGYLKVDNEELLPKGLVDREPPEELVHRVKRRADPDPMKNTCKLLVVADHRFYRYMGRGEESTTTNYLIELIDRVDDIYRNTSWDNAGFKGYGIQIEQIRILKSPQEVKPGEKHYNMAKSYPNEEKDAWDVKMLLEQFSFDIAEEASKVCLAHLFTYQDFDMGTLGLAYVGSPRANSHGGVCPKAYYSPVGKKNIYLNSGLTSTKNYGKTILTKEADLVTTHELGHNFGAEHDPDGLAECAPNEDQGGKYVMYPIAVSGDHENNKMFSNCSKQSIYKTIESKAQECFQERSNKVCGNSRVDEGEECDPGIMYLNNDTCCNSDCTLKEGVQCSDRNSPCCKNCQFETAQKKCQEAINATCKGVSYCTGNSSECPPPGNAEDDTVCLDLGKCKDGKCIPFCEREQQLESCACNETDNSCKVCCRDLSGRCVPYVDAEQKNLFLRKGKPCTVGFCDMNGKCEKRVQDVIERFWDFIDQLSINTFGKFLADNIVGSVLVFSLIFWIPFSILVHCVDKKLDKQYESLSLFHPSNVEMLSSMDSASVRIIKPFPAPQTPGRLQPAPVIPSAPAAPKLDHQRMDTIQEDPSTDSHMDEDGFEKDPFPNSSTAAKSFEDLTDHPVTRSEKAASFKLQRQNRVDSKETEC
Assay [3] concerns the target T2, Interstitial collagenase (Homo sapiens) (UniProt P03956).
T2 sequence (whole entry): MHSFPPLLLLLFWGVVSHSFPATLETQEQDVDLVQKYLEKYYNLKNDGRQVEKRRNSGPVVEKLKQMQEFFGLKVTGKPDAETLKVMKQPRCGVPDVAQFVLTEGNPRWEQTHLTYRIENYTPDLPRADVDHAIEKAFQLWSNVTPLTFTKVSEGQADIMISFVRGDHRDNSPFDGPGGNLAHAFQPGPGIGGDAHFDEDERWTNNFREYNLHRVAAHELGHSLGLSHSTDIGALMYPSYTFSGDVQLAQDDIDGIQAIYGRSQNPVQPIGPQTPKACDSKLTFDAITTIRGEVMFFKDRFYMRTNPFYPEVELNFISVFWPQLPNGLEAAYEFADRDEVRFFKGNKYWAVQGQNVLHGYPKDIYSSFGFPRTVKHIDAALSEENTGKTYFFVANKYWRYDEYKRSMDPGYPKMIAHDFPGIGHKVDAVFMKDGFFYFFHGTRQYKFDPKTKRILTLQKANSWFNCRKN
The experiment in a line: Inhibition of MMP1 at 10 uM.

Assay [4] has as its target T3, A disintegrin and metalloproteinase with thrombospondin motifs 5 (Homo sapiens) (UniProt Q9UNA0).
T3 sequence (whole entry): T1 sequence (Q9UNA0 whole entry)
The experiment in a line: Inhibition of recombinant aggrecanase 2 at 10 uM.

The term IC50 denotes the concentration that inhibits the measured activity by half. `CN([C@H](Cc1ccccc1)C(=O)O)S(=O)(=O)c1ccc(-c2ccc(Cl)cc2)cc1`: the IC50 in assay [1] stood at 8000 nM.

For `O=C1CCCN1CCN([C@]1(C(=O)O)C[C@H]1c1ccccc1)S(=O)(=O)c1ccc(-c2ccc(Cl)cc2)cc1`, the outcome in assay [2] and in assay [3] was inactive. Besides, the IC50 in assay [1] was determined as 200 nM.

Consider `O=C(O)[C@@]1(N(CCn2cnc3ncncc32)S(=O)(=O)c2ccc(-c3ccc(Cl)cc3)cc2)C[C@H]1c1ccccc1`, for which the result in assay [2] and in assay [3] was inactive. Also, in assay [1], the IC50 was determined as 71 nM.

In the case of `CC(=O)Nc1ccc(-c2ccc(S(=O)(=O)N(CCN3CCCC3=O)[C@]3(C(=O)O)C[C@H]3c3ccccc3)cc2)cc1`, in assay [1], the IC50 stood at 4500 nM.

With `O=C(O)[C@@]1(N(CCc2ccccn2)S(=O)(=O)c2ccc(-c3ccc(Cl)cc3)cc2)C[C@H]1c1ccccc1`, the outcome in assay [2] and in assay [3] was inactive. Besides, the IC50 in assay [1] was found to be 820 nM.

`O=C(O)[C@@]1(N(CCn2cnnn2)S(=O)(=O)c2ccc(-c3ccc(Cl)cc3)cc2)C[C@H]1c1ccccc1`: the outcome in assay [2] and in assay [3] was inactive. For the same compound, the IC50 in assay [1] stood at 270 nM.

As to `CN(C)c1ccc(-c2ccc(S(=O)(=O)N(CCN3CCCC3=O)[C@]3(C(=O)O)C[C@H]3c3ccccc3)cc2)cc1`, in assay [1], the IC50 turned out to be 6600 nM.

On to `COc1cccn(CCN([C@]2(C(=O)O)C[C@H]2c2ccccc2)S(=O)(=O)c2ccc(-c3ccc(Cl)cc3)cc2)c1=O`, for which the result in assay [2] and in assay [3] was inactive. The IC50 in assay [1] worked out at 78 nM.

Consider `O=C(O)[C@@]1(N(CCn2ccnc2)S(=O)(=O)c2ccc(-c3ccc(Cl)cc3)cc2)C[C@H]1c1ccccc1`, for which the outcome in assay [2] and in assay [3] was inactive. Moreover, the IC50 in assay [1] was found to be 320 nM.

Regarding `O=C(O)[C@@]1(N(CCc2ccncc2)S(=O)(=O)c2ccc(-c3ccc(Cl)cc3)cc2)C[C@H]1c1ccccc1`, the result in assay [2] and in assay [3] was inactive. Also, the IC50 in assay [1] was 750 nM.

As to `COC(=O)c1cn(CCN([C@]2(C(=O)O)C[C@H]2c2ccccc2)S(=O)(=O)c2ccc(-c3ccc(Cl)cc3)cc2)cn1`, the result in assay [2] and in assay [3] was inactive. Further, the IC50 in assay [1] came to 73 nM.

In general, inhibition refers to the change of the read-out against control, counted positive when it falls. With `O=C(O)[C@@H](Cc1ccccc1)N(Cc1ccccc1)S(=O)(=O)c1ccc(-c2ccc(Cl)cc2)cc1`, the inhibition in assay [4] was 30%.

Regarding `O=C1CCCN1CCN([C@]1(C(=O)O)C[C@H]1c1ccccc1)S(=O)(=O)c1ccc(C#CCO)cc1`, the inhibition in assay [4] is -1.5%.

As for `O=C1OCCCN1CCN([C@]1(C(=O)O)C[C@H]1c1ccccc1)S(=O)(=O)c1ccc(-c2ccc(Cl)cc2)cc1`, the result in assay [2] and in assay [3] was inactive. Also, the IC50 in assay [1] turned out to be 180 nM.

Turning to `O=C(O)[C@@]1(N(CCc2cccnc2)S(=O)(=O)c2ccc(-c3ccc(Cl)cc3)cc2)C[C@H]1c1ccccc1`, the outcome in assay [2] and in assay [3] was inactive. Further, in assay [1], the IC50 stood at 290 nM.

For the compound `O=C1CCCN1CCN([C@]1(C(=O)O)C[C@H]1c1ccccc1)S(=O)(=O)c1ccc(-c2ccncc2)cc1`, the inhibition in assay [4] came out at 18%.

For the compound `O=C1CCCN1CCN([C@]1(C(=O)O)C[C@H]1c1ccccc1)S(=O)(=O)c1ccc(-c2ccc(Cl)cc2)nc1`, the IC50 in assay [1] was found to be 1100 nM.

With `O=C(O)[C@@H](Cc1ccccc1)N(CCN1CCCC1=O)S(=O)(=O)c1ccc(-c2ccc(Cl)cc2)cc1`, the IC50 in assay [1] turned out to be 1600 nM.

Regarding `C[C@@](Cc1ccccc1)(C(=O)O)N(CCN1CCCC1=O)S(=O)(=O)c1ccc(-c2ccc(Cl)cc2)cc1`, the inhibition in assay [4] was 0.1%.

Regarding `O=C1OCCN1CCN([C@]1(C(=O)O)C[C@H]1c1ccccc1)S(=O)(=O)c1ccc(-c2ccc(Cl)cc2)cc1`, the result in assay [2] and in assay [3] was inactive. The 50% inhibitory concentration (IC50) in assay [1] came out at 220 nM.

For `COC(=O)c1cncn1CCN([C@]1(C(=O)O)C[C@H]1c1ccccc1)S(=O)(=O)c1ccc(-c2ccc(Cl)cc2)cc1`, the outcome in assay [2] and in assay [3] was inactive. Besides, in assay [1], the 50% inhibitory concentration (IC50) came out at 230 nM.

`O=C1CCCN1CCN([C@]1(C(=O)O)C[C@H]1c1ccccc1)S(=O)(=O)N1CC=C(c2ccc(Cl)cc2)CC1`: in assay [1], the IC50 is 880 nM.

Consider `O=C(O)[C@@]1(N(CCn2ccnn2)S(=O)(=O)c2ccc(-c3ccc(Cl)cc3)cc2)C[C@H]1c1ccccc1`, for which the result in assay [2] and in assay [3] was inactive. The IC50 in assay [1] is 270 nM.

Turning to `O=C(O)[C@@]1(N(CCn2cncn2)S(=O)(=O)c2ccc(-c3ccc(Cl)cc3)cc2)C[C@H]1c1ccccc1`, the result in assay [2] and in assay [3] was inactive. The IC50 in assay [1] worked out at 180 nM.

With `CN([C@@H](Cc1ccccc1)C(=O)O)S(=O)(=O)c1ccc(-c2ccc(Cl)cc2)cc1`, the inhibition in assay [4] was -0.12%.

As to `O=C(O)[C@@H](Cc1ccccc1)NS(=O)(=O)c1ccc(-c2ccc(Cl)cc2)cc1`, in assay [1], the half-maximal inhibitory concentration (IC50) came out at 3200 nM.

`O=C(O)[C@@H](Cc1ccccc1)N(CC1CC1)S(=O)(=O)c1ccc(-c2ccc(Cl)cc2)cc1`: the inhibition in assay [4] worked out at 46%.

As to `O=C1CCCCN1CCN([C@]1(C(=O)O)C[C@H]1c1ccccc1)S(=O)(=O)c1ccc(-c2ccc(Cl)cc2)cc1`, the outcome in assay [2] and in assay [3] was inactive. Further, in assay [1], the IC50 amounted to 210 nM.

For `O=C(O)[C@@H](Cc1ccccc1)N(CC1CCCCC1)S(=O)(=O)c1ccc(-c2ccc(Cl)cc2)cc1`, the inhibition in assay [4] amounted to 22%.

As for `O=C(O)[C@@]1(N(CCn2nccn2)S(=O)(=O)c2ccc(-c3ccc(Cl)cc3)cc2)C[C@H]1c1ccccc1`, the outcome in assay [2] and in assay [3] was inactive. Moreover, the IC50 in assay [1] was found to be 260 nM.

For the compound `O=C(O)[C@@]1(N(CCn2cnnc2)S(=O)(=O)c2ccc(-c3ccc(Cl)cc3)cc2)C[C@H]1c1ccccc1`, the result in assay [2] and in assay [3] was inactive. The IC50 in assay [1] was found to be 190 nM.

Take `O=C1CCC(=O)N1CCN([C@]1(C(=O)O)C[C@H]1c1ccccc1)S(=O)(=O)c1ccc(-c2ccc(Cl)cc2)cc1`: the outcome in assay [2] and in assay [3] was inactive. Besides, in assay [1], the IC50 amounted to 310 nM.

With `O=C(O)[C@@H](Cc1ccccc1)N(CCc1ccccc1)S(=O)(=O)c1ccc(-c2ccc(Cl)cc2)cc1`, the IC50 in assay [1] stood at 7300 nM.

In the case of `O=C(O)[C@@]1(N(CCn2cnc3cncnc32)S(=O)(=O)c2ccc(-c3ccc(Cl)cc3)cc2)C[C@H]1c1ccccc1`, the outcome in assay [2] and in assay [3] was inactive. In assay [1], the IC50 came out at 170 nM.

`COCC#Cc1ccc(S(=O)(=O)N(CCN2CCCC2=O)[C@]2(C(=O)O)C[C@H]2c2ccccc2)cc1`: the inhibition in assay [4] amounted to 2.9%.

The record behind these values is ChEMBL document CHEMBL1153928, “Novel N-substituted 2-phenyl-1-sulfonylamino-cyclopropane carboxylates as selective ADAMTS-5 (Aggrecanase-2) inhibitors” (Bioorg Med Chem Lett, 2009).
